The results in this text go back to PubChem BioAssay AID328 (DTP/NCI, 2004).

For this experiment, the system named is BDF1 mice, P388 leukemia ip, median survival T/C. The experiment is described as follows: NCI In Vivo Anticancer Drug Screen. Data for tumor model P388 Leukemia (intraperitoneal) in B6D2F1 (BDF1) mice. To be noted: endpoint: median survival time, higher = longer survival. The essentials:
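In tumour-bearing mice, survival after compound treatment is set against the vehicle group and given as a quotient.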

The mark [1] stands for this setting: dose: 50.0 mg/kg/injection, schedule: Q01DX009 (ip), vehicle: saline with Tween-80.
The mark [2] stands for this setting: dose: 100.0 mg/kg/injection, schedule: Q01DX009 (ip), vehicle: saline with Tween-80.
The mark [3] stands for this setting: dose: 200.0 mg/kg/injection, schedule: Q01DX009 (ip), vehicle: saline with Tween-80.
[4] abbreviates: dose: 12.5 mg/kg/injection, schedule: Q01DX009 (ip), vehicle: saline with Tween-80.
[5] abbreviates: dose: 25.0 mg/kg/injection, schedule: Q01DX009 (ip), vehicle: saline with Tween-80.
The mark [6] stands for this setting: dose: 100.0 mg/kg/injection, schedule: Q04DX003 (ip), vehicle: saline.
Where [7] appears, read: dose: 200.0 mg/kg/injection, schedule: Q04DX003 (ip), vehicle: saline.
[8] abbreviates: dose: 400.0 mg/kg/injection, schedule: Q01DX009 (ip), vehicle: saline with Tween-80.
[9] abbreviates: dose: 400.0 mg/kg/injection, schedule: Q04DX003 (ip), vehicle: saline.

Values joined by “and” are separate entries in the source; they are usually repeats but may differ in a detail not shown here. Identical values can stand only once. Inconclusive results and toxic doses are left out.

With `O=S(=O)(Nc1ccccn1)c1ccc(N(CCCl)CCCl)cc1`, the T/C runs as follows: under setting [1], 100 % of control; under setting [2], 95 % of control; under setting [3], 90 % of control.
In the case of `Nc1nc2nc(N=Nc3ccc(Br)cc3)[nH]c2c(=O)[nH]1`, the T/C is 98 % of control (dose: 50.0 mg/kg/injection, schedule: Q01DX005 (ip), vehicle: saline with Tween-80); 97 % of control (dose: 100.0 mg/kg/injection, schedule: Q01DX005 (ip), vehicle: saline with Tween-80); 100 % of control (dose: 200.0 mg/kg/injection, schedule: Q01DX005 (ip), vehicle: saline with Tween-80).
For `CCCCCCCC(O)CCCCCCC`, the T/C reads like this: (dose: 100.0 mg/kg/injection, schedule: Q01DX009 (ip), vehicle: other) 115 % of control; (dose: 200.0 mg/kg/injection, schedule: Q01DX009 (ip), vehicle: other) 110 % of control; (dose: 400.0 mg/kg/injection, schedule: Q01DX009 (ip), vehicle: other) 100 % of control.
With `O=c1[nH]nc(-c2ccccc2)nc1/C(=N\Nc1ccccc1)c1ccccc1`, the T/C runs as follows: (dose: 1.56 mg/kg/injection, schedule: Q01DX009 (ip), vehicle: saline with Tween-80) 92 % of control; (dose: 3.12 mg/kg/injection, schedule: Q01DX009 (ip), vehicle: saline with Tween-80) 107 % of control; (dose: 6.25 mg/kg/injection, schedule: Q01DX009 (ip), vehicle: saline with Tween-80) 95 % of control and 98 % of control; under setting [4], 101 % of control; under setting [5], 92 % of control.
On to `CCCC1CC[N-]CC1.CCCC1CC[N-]CC1.CCCC1CC[N-]CC1.CCCC1CC[N-]CC1.[Cl][Rh][Cl]`, for which the T/C is 122 % of control (dose: 0.35 mg/kg/injection, schedule: Q01DX009 (ip), vehicle: saline); 123 % of control (dose: 0.53 mg/kg/injection, schedule: Q01DX009 (ip), vehicle: saline); 119 % of control (dose: 0.8 mg/kg/injection, schedule: Q01DX009 (ip), vehicle: saline); 86 % of control (dose: 3.0 mg/kg/injection, schedule: Q01DX009 (ip), vehicle: Klucel (hydroxypropylcellulose) (HPC)).
In the case of `O=C(Nc1cccc(Cl)c1)N1c2ccccc2SC1c1ccco1` (centres undefined), the T/C reads like this: under setting [1], 91 % of control; under setting [2], 107 % of control; under setting [3], 109 % of control.
On to `Sc1ccc(Nc2c3ccccc3nc3ccccc23)cc1`, for which the T/C is, setting by setting: under setting [1], 102 % of control and 108 % of control; under setting [2], 100 % of control and 118 % of control.
Consider `Nc1nc2c(c(=O)[nH]1)N(C=O)C(CNc1ccc(C(=O)N[C@@H](CCC(=O)O)C(=O)O)cc1)CN2` (some centres undefined), for which the T/C is, setting by setting: under setting [2], 95 % of control; under setting [6], 104 % of control; under setting [3], 95 % of control; under setting [7], 104 % of control; under setting [8], 95 % of control; under setting [9], 100 % of control.
As for `CC12C=CC(=O)C=C1CCC1C3CCC(O)(C(=O)CO)C3(C)CC(O)C12F` (centres undefined), the T/C is, setting by setting: (dose: 25.0 mg/kg/injection, schedule: Q04DX003 (sc), vehicle: steriod suspending solution) 113 % of control; (dose: 50.0 mg/kg/injection, schedule: Q04DX003 (sc), vehicle: steriod suspending solution) 86 % of control; (dose: 56.25 mg/kg/injection, schedule: Q01DX009 (sc), vehicle: steriod suspending solution) 100 % of control; (dose: 100.0 mg/kg/injection, schedule: Q04DX003 (sc), vehicle: steriod suspending solution) 86 % of control; (dose: 112.5 mg/kg/injection, schedule: Q01DX009 (sc), vehicle: steriod suspending solution) 118 % of control; (dose: 150.0 mg/kg/injection, schedule: Q04DX003 (sc), vehicle: steriod suspending solution) 104 % of control. Besides, the T/C (dose: 225.0 mg/kg/injection, schedule: Q01DX009 (sc), vehicle: steriod suspending solution) is 104 % of control and the T/C (dose: 225.0 mg/kg/injection, schedule: Q04DX003 (sc), vehicle: steriod suspending solution) is 90 % of control.
`C[n+]1ccc(/C=N/O)cc1`: the T/C is 105 % of control (dose: 25.0 mg/kg/injection, schedule: Q04DX003 (ip), vehicle: saline); 103 % of control (dose: 50.0 mg/kg/injection, schedule: Q04DX003 (ip), vehicle: saline); 98 % of control under setting [6]; 89 % of control and 100 % of control under setting [7]; 86 % of control under setting [9].
`CCCCOP(=S)(N1CC1)N1CC1`: the T/C is 113 % of control (dose: 1.78 mg/kg/injection, schedule: Q01DX009 (ip), vehicle: saline with Tween-80); 150 % of control (dose: 2.66 mg/kg/injection, schedule: Q01DX009 (ip), vehicle: saline with Tween-80); 99 % of control (dose: 2.66 mg/kg/injection, schedule: Q04DX003 (ip), vehicle: saline with Tween-80); 186 % of control (dose: 4.0 mg/kg/injection, schedule: Q01DX009 (ip), vehicle: saline with Tween-80); 95 % of control (dose: 4.0 mg/kg/injection, schedule: Q04DX003 (ip), vehicle: saline with Tween-80); 216 % of control (dose: 6.0 mg/kg/injection, schedule: Q01DX009 (ip), vehicle: saline with Tween-80). Moreover, the T/C is 194 % of control (dose: 6.6 mg/kg/injection, schedule: Q01DX009 (ip), vehicle: saline with Tween-80); 211 % of control (dose: 10.0 mg/kg/injection, schedule: Q01DX009 (ip), vehicle: saline with Tween-80); 212 % of control (dose: 11.0 mg/kg/injection, schedule: Q01DX009 (ip), vehicle: saline with Tween-80); 108 % of control (dose: 15.0 mg/kg/injection, schedule: Q01DX009 (ip), vehicle: saline with Tween-80); 111 % of control under setting [5]; 95 % of control (dose: 37.5 mg/kg/injection, schedule: Q01DX009 (ip), vehicle: saline with Tween-80). In addition, the T/C was 96 % of control under setting [1]; 263 % of control (dose: 100.0 mg/kg/injection, schedule: Q04DX003 (ip), vehicle: saline with Tween-80); 104 % of control (dose: 200.0 mg/kg/injection, schedule: Q04DX003 (ip), vehicle: saline with Tween-80).
Regarding `CC1(C)C=C(C(N)=O)C(C)(C)N1O`, the T/C is, setting by setting: (dose: 100.0 mg/kg/injection, schedule: Q01DX001 (ip), vehicle: Klucel (hydroxypropylcellulose) (HPC)) 100 % of control; (dose: 200.0 mg/kg/injection, schedule: Q01DX001 (ip), vehicle: Klucel (hydroxypropylcellulose) (HPC)) 88 % of control; (dose: 400.0 mg/kg/injection, schedule: Q01DX001 (ip), vehicle: Klucel (hydroxypropylcellulose) (HPC)) 96 % of control.
For `CCOC(=O)C(OCc1ccccc1)(C(=O)O)C(C)C` (centres undefined), the T/C runs as follows: under setting [5], 95 % of control; under setting [1], 90 % of control; under setting [2], 109 % of control; under setting [3], 100 % of control; under setting [8], 104 % of control.
As to `Nc1nc(N)nc(CCP(CCc2nc(N)nc(N)n2)CCc2nc(N)nc(N)n2)n1`, the T/C by setting is: (dose: 50.0 mg/kg/injection, schedule: Q04DX003 (ip), vehicle: saline sonified) 100 % of control; (dose: 100.0 mg/kg/injection, schedule: Q04DX003 (ip), vehicle: saline sonified) 110 % of control; (dose: 200.0 mg/kg/injection, schedule: Q04DX003 (ip), vehicle: saline sonified) 110 % of control.
As to `CC1CCC[N-]C1.CC1CCC[N-]C1.[Cl][Pt+2]([Cl])([Cl])[Cl]` (centres undefined), the T/C was 150 % of control and 154 % of control (dose: 3.12 mg/kg/injection, schedule: Q01DX009 (ip), vehicle: saline); 172 % of control (dose: 6.25 mg/kg/injection, schedule: Q01DX009 (ip), vehicle: saline); 161 % of control (dose: 8.2 mg/kg/injection, schedule: Q01DX009 (ip), vehicle: saline); 154 % of control (dose: 25.0 mg/kg/injection, schedule: Q01DX009 (ip), vehicle: saline).
Turning to `O=c1nc(Oc2ccccc2)nc2cnccn12`, the T/C reads like this: under setting [1], 88 % of control; under setting [2], 88 % of control.
As for `CCOC(=O)C1Cc2c([nH]c(=S)[nH]c2=O)OC1c1ccccc1` (centres undefined), the T/C is, setting by setting: under setting [4], 100 % of control; under setting [5], 90 % of control; under setting [1], 104 % of control.
In the case of `COc1ccc(C(=O)C(O)c2ccccc2)cc1` (centres undefined), the T/C was 100 % of control (dose: 100.0 mg/kg/injection, schedule: Q04DX003 (ip), vehicle: other) and 100 % of control (dose: 200.0 mg/kg/injection, schedule: Q04DX003 (ip), vehicle: other).
